Patent US6825217B2, “Carbinols for the treatment of neuropathic dysfunction” (Endo Pharmaceuticals, Inc., priority 2001, dated 2004)

Assays:
[1] = Mouse antiphenylquinone writhing (PQW) test; format: in vivo
Experimental: The anti-phenylquinone writhing (PQW) test modified from the methods of Siegmund et al. (Proc. Soc. Exp. Biol. Med. 95: 729-731, 1957) and Blumberg et al. (Proc. Exp. Biol. Med. 118: 763-767, 1965) was used to assess the relief from the simulated symptoms of neuropathic pain in mice. Male CF1 mice (Charles River Breeding Laboratories, Wilmington, Mass.), fasted for 16-22 hours and weighing 18-23 g, were injected with randomized and coded doses of test compounds, then challenged with 1.25 mg/kg i.p. phenyl-p-benzoquinone (phenylquinone) 5 minutes prior to the specified observation time. The phenylquinone solution (0.1 mg/ml in 5% aqueous ethanol) was prepared daily and stored in foil-wrapped amber bottles to limit degradation. Mice were observed 10 minutes for the presence or absence of the characteristic abdominal constriction and stretching response beginning 30 minutes after injection of the test compound. Activity was calculated as the percentage of mice failing to respond to the phenylquinone challenge dose. […] Median effective doses (ED50's) and 95% confidence limits were determined numerically by the methods of Thompson (Bacteriological Rev. 11: 115-145, 1947), and Litchfield and Wilcoxon (J. Pharmacol. Exp. Ther. 96: 99-113, 1949).

[2] = Dog tooth pulp; format: in vivo; conditions: unmarked entry of animal model table
[3] = Safety pharmacology, monkey; format: in vivo
[4] = biological target: T1, rat synaptosomal NE Reuptake (Rattus norvegicus, UniProt Q63380); test: Norepinephrine reuptake assay (rat synaptosomal NE uptake); format: biochemical
T1 construct: rat synaptosomal 5-HT and NE Reuptake; from tissue; host or cells: rat synaptosomes (rat brain preparations)

[5] = Rat Tail-Flick; format: in vivo; design: key to activity in rat Tail Flick model: *: Inactive; Φ: Weakly active
[6] = biological target: T2, kappa receptor sites in the brain (Homo sapiens, UniProt P41145); test: Activity at kappa receptor sites in the brain; format: binding
T2 construct: mu, kappa, delta or sigma receptor sites in the brain; from tissue

[7] = biological target: T3, mu receptor sites in the brain (Homo sapiens, UniProt P35372); test: Activity at mu receptor sites in the brain; format: binding
T3 construct: mu, kappa, delta or sigma receptor sites in the brain; from tissue

[8] = Safety pharmacology, dog; format: in vivo
[9] = Abuse assay (self-administration); format: in vivo, Cynomologous monkeys
Experimental: Cynomologous monkeys are trained to self-administer drugs by pressing on a lever a certain number of times. The number of times an animal will press the lever before extinquishing in an attempt to self-administer drug is calculated as their fixed ratio (FR). For example, cynomologous monkeys that are trained to self-administer codeine will press the lever 300 times (FR 300) and or 10,000 times (FR 10,000) to obtain a dose of codeine. Cynomologous monkeys were trained to self-administer the compounds of the present invention.

[10] = Safety pharmacology, mouse; format: in vivo
[11] = Studies in animals: addictive and respiratory depressant properties; format: in vivo; conditions: versus narcotic-related analgesics

T1 sequence (Q63380 1-617): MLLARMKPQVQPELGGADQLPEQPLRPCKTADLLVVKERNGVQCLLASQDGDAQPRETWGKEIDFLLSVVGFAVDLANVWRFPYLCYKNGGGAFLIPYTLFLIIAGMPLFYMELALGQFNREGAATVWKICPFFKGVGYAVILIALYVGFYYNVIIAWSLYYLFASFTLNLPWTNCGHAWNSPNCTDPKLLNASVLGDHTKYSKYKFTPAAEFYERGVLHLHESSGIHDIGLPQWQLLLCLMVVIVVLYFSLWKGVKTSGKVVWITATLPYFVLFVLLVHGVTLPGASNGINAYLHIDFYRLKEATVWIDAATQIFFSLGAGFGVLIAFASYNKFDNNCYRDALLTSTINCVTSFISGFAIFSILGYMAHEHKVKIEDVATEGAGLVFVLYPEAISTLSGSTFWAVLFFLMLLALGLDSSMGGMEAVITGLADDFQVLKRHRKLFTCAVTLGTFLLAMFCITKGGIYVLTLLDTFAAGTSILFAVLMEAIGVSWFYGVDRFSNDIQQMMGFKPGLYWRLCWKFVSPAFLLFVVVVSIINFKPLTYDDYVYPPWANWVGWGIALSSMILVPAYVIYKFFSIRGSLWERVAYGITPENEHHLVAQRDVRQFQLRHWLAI
T3 sequence (P35372 whole entry): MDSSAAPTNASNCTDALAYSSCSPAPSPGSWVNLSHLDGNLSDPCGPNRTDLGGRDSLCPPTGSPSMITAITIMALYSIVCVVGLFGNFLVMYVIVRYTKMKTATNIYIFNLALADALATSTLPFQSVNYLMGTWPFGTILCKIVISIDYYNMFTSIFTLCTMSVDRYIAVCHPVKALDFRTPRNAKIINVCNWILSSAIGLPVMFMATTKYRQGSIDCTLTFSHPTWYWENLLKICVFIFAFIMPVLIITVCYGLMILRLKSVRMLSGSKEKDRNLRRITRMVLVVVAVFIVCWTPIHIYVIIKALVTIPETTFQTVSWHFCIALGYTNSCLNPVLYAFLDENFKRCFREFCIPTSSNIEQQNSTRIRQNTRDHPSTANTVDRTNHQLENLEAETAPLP
T2 sequence (P41145 whole entry): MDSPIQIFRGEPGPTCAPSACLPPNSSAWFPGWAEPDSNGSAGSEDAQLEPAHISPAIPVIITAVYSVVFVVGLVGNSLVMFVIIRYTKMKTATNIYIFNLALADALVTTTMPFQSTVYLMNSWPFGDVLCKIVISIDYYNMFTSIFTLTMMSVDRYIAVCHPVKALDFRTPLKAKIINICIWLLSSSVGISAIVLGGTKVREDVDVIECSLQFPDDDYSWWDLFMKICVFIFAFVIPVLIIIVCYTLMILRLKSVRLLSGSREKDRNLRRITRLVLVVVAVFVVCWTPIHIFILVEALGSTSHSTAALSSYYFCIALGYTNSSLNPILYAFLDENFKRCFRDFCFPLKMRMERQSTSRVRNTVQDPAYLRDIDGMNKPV

## CN1CCC(c2ccsc2)(C(C)(C)O)CC1 [Compound A, 4-(3-thienyl)-α,α,1-trimethyl-4-piperidinemethanol]
[1]; Mus musculus
  ED50: 18 mg/kg
[1]; mouse, unmarked entry of animal model table
  activity in mouse PQW model: showed activity
[2]
  activity in dog Tooth pulp model: showed activity
[3]; in vivo, other: iv/sc
  MTD: 16 to 32 mg/kg
[3]; iv/sc
  LD: LD = 1.6-32 mg/kg
  physical dep: non-opioid
  respiratory depression, multiple of effective dose (mg/kg): 16/32
[3]; iv/sc, 0.4, at 7 days
  Chronic dosing: effect at 0.4: 0.4 = retching
[3]; iv/sc, 1.6, at 11 days
  Chronic dosing: effect at 1.6: 1.6 = death
[3]; iv/sc, 1.6, at 20 days
  Chronic dosing: effect at 1.6: 1.6 = death
[4]; rat brain preparations
  uptake of norepinephrine: inhibits uptake
[4]; rat synaptosomal, read-out: NE uptake inhibition IC50
  IC50: 223 nM
[5]
  Rat Tail-Flick: Inactive
  activity in rat Tail Flick model: Tail Flick*
[6]
  activity at kappa receptor sites: does not show significant activity
[7]
  activity at mu receptor sites: does not show significant activity
[8]; in vivo
  MTD: 20 mg/kg
[8]; iv-pentobarb
  hypotension/decreased cardiac contractility, anemia, multiple of effective dose: 10 X
[8]; po
  emesis/anorexia BW loss, multiple of effective dose: 1-10 X
  respiratory acidosis, multiple of effective dose: 10 X
[9]; Cynomologous monkeys
  monkeys responding following involuntary injections: two out of four monkeys
[9]; Cynomologous monkeys trained to self-administer
  self-administration response achieved: one out of four monkeys
[10]; po
  LD: LD = 900 mg/kg-po
[10]; po/iv
  cross-tolerance to morphine, multiple of effective dose: 1-50 X
  inhibition of GI motility, multiple of effective dose: 1 X
  mydriasis, multiple of effective dose: 1 X
[11]
  addictive and respiratory depressant properties: lacks the addictive and respiratory depressant properties
